Data reported in patent US11773127B2, “Compounds and methods for treating bacterial infections” (Washington University, priority 2017, dated 2023).
Values after ≈ are worked out from the molar mass of the structure shown. Read-outs that look alike come from different tables or passages of the source.

Columns and labels:
[1] = biological target: T1, FmlHLD (Escherichia coli, UniProt P77588); assay: biochemical; format: binding, E. coli
T1 construct: 6xHis (C); made in house; host or cells: E. coli C600, periplasm, pTRC99a
Excerpt: Bio-layer interferometry (BLI) was used to quantitate the binding affinity of select galactosides to FmlH.
Thereafter, pins were dipped in PBS for 120 s and transferred to protein samples (varying concentration of FmlHLD or fixed concentration of FmlHLD with varying concentration of galactoside compounds) for association for 300-600 s.

[2] = biological target: T1, FmlHLD; assay: biochemical; format: binding, E. coli; conditions: for inhibition of FmlHLD binding to ds-BSM, in words: soluble compound at 1 mM; for PI100 (percent inhibition): galactoside at 100 μM, 100 µM; for inhibitory potency against FmlH, in words: ELISA-based competition assay; for PI10 (percent inhibition): galactoside at 10 μM, 10 µM
Summary of the method: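 Sialidase-treated bovine submaxillary mucin (ds-BSM) coated wells, BSA-blocked, then biotinylated FmlH^LD (20 μg/mL) with or without compound for 1 h at room temperature. Bound lectin detected by streptavidin-HRP/TMB, A450.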

[3] = Stability in simulated gastric fluid (SGF); format: in vitro ADME
Method: (§1) These compounds were assessed for their stability in simulated gastric fluid (SGF), simulated intestinal fluid (SIF), mouse liver microsomes, and blood plasma (Table 7). […] These findings are consistent with our earlier characterization of FimH antagonists (mannosides).

[4] = Mouse liver microsome stability; format: in vitro ADME
Method: as §1

[5] = Stability in simulated intestinal fluid (SIF); format: in vitro ADME
Method: as §1

[6] = Kinetic solubility; format: physicochemical
[7] = Mouse plasma stability; format: in vitro ADME
Method: as §1

[8] = Rat pharmacokinetics, plasma and urine, IV and PO; format: in vivo; conditions: for bioavailability: in vivo, 10 mg/kg PO vs 3 mg/kg IV, read-out: oral bioavailability (F); for bioavailability / renal clearance to the urine: rat
Method: In this example, the concentration of compounds 3086 and 3090 in rat plasma and urine following either a 10 mg/kg oral dose (PO; circular dots) or a 3 mg/kg intravenous dose (IV; square dots) was determined (FIG. 16, panel A (3086) and panel B (3090)). […] Thus, the metabolic stability of these compounds and clearance of these compounds has no relation to the permeability (oral or otherwise) of compounds. The highly polar nature of these molecules containing the sugar GalNAc and multiple polar functionalities precludes their permeability in the gut.

[9] = Kd (μM), inhibitory constants, fixed FmlHLD, varying galactoside in solution, immobilized ser-TF
[10] = read-out: % Inhibition at [μM] [100], compound at 100 μM, inhibition of FmlHLD binding to ds-BSM
[11] = read-out: PI100 (percent inhibition), galactoside at 100 μM, mean with standard error of the mean
[12] = IC50 (μM), Table 6, sulfonamides 3078-3090
[13] = mean with standard error of the mean
[14] = read-out: PI1 (percent inhibition), galactoside at 1 μM, mean with standard error of the mean
[15] = read-out: PI10 (percent inhibition), galactoside at 10 μM, mean with standard error of the mean
[16] = read-out: % Inhibition at [μM] [1], compound at 1 μM, inhibition of FmlHLD binding to ds-BSM
[17] = read-out: % Inhibition at [μM] [10], compound at 10 μM, inhibition of FmlHLD binding to ds-BSM
[18] = rat plasma, 10 mg/kg PO or 3 mg/kg IV

T1 sequence (P77588 25-182): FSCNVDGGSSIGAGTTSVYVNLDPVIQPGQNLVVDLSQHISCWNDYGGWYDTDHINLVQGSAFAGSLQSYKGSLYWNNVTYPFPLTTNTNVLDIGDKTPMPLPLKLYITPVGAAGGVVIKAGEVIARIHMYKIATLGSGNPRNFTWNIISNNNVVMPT

## O=[N+]([O-])c1ccccc1O[C@@H]1O[C@H](CO)[C@H](O)[C@H](O)[C@H]1O [4β (ONPG), reference compound]
[1]; [9]
  Kd: 10.6 ± 4.6 µM

## CC(=O)N[C@@H]1[C@@H](O[C@@H]2O[C@H](CO)[C@H](O)[C@H](O)[C@H]2O)[C@@H](O)[C@@H](CO)O[C@@H]1O [TF, Gal-β1-3-GalNAc-α, reference compound]
[1]; Kd
  Kd: 248 µM
[2]; [10]
  inhibition at 100 µM: 15.5%
[2]; [11]
  inhibition at 100 µM: 15.5 ± 6.7%
[2]
  inhibition of FmlHLD binding to ds-BSM, in words: capable of inhibiting FmlHLD

## CC(=O)N[C@@H]1[C@@H](O)[C@@H](O)[C@@H](CO)O[C@H]1O (stereo in doubt) [GalNAc, N-acetylgalactosamine, reference compound]
[1]; [9]
  Kd: 189 ± 22.9 µM
[2]; [10]
  inhibition at 100 µM: 28.4%
[2]; [11]
  inhibition at 100 µM: 28.5 ± 5.2%
[2]
  inhibition of FmlHLD binding to ds-BSM, in words: capable of inhibiting FmlHLD

## CC(=O)N[C@@H]1[C@H](Oc2cccc(C#N)c2-c2cccc(NS(C)(=O)=O)c2)OC(CO)[C@H](O)[C@@H]1O (stereo partly drawn) [Compound 3079, N-((2S,3S,4R,5R)-2-((6-cyano-3′-(methylsulfonamido)-[1,1′-biphenyl]-2-yl)oxy)-4,5-dihydroxy-6-(hydroxymethyl)tetrahydro-2H-pyran-3-yl)acetamide]
[2]; [12]
  IC50: 0.11 µM
[3]
  SGF % remaining 6 h: 86.77%
[4]
  Mouse liver microsomes (t1/12 min): >145 min
[5]
  SIF % remaining 2 h: 100.00%
[6]; kinetic from dmso stock
  solubility kinetic: 196 µM (≈ 96.3 µg/mL)
[7]
  Mouse plasma % remaining 2 h: 89.1%

## COc1ccccc1O[C@@H]1O[C@H](CO)[C@H](O)[C@H](O)[C@H]1O [Compound 5β, 2-methoxyphenyl β-D-galactopyranoside]
[1]; [9]
  Kd: 6.5 ± 1.4 µM
[2]; [13]
  PI100 (percent inhibition): 97.2 ± 0.4%
[2]; [14]
  inhibition at 1 µM: 10 ± 4.3%
[2]; [15]
  inhibition at 10 µM: 55.7 ± 1.6%
[2]; [11]
  inhibition at 100 µM: 97%

## OC[C@H]1O[C@@H](Oc2cccc3cccnc23)[C@H](O)[C@@H](O)[C@H]1O [Compound 20β]
[1]; [9]
  Kd: 7.1 ± 2.3 µM
[2]; [13]
  PI100 (percent inhibition): 95.1 ± 1.1%
[2]; [14]
  inhibition at 1 µM: 19.2 ± 2.8%
[2]; [15]
  inhibition at 10 µM: 48.1 ± 2%
[2]; [11]
  inhibition at 100 µM: 95%

## O=c1c(O[C@@H]2O[C@H](CO)[C@H](O)[C@H](O)[C@H]2O)c(-c2ccc(O)c(O)c2)oc2cc(O)cc(O)c12 [QG, reference compound]
[1]; Kd
  Kd: 391 µM
[2]; [10]
  inhibition at 100 µM: 14.4%

## CC(=O)N[C@H]1[C@H](Oc2ccccc2-c2cccc(C(=O)O)c2)O[C@H](CO)[C@H](O)[C@@H]1O [Compound 200b-GalNAc]
[1]; Kd
  Kd: 0.089 µM
[2]; [16]
  inhibition at 1 µM: 35.1%
[2]; [17]
  inhibition at 10 µM: 93%
[2]; [10]
  inhibition at 100 µM: 99.5%

## CC(=O)N[C@@H]1[C@H](Oc2cccc(C(F)(F)F)c2-c2cccc(NS(C)(=O)=O)c2)OC(CO)[C@H](O)[C@@H]1O (stereo partly drawn) [Compound 3090, N-((2S,3S,4R,5R)-4,5-dihydroxy-6-(hydroxymethyl)-2-((3′-(methylsulfonamido)-6-(trifluoromethyl)-[1,1′-biphenyl]-2-yl)oxy)tetrahydro-2H-pyran-3-yl)acetamide]
[8]
  bioavailability: < 1%
  renal clearance to the urine: low renal clearance to the urine
[8]; [18]
  half-life: 1.16 h
[8]; rat plasma, 10 mg/kg PO or 3 mg/kg IV, read-out: clearance (Cl)
  clearance: 57 mL/min/kg
[2]
  inhibitory potency against FmlH, in words: highest potency of the compounds tested
[2]; IC50
  IC50: 0.085 µM
[3]
  SGF % remaining 6 h: 89.25%
[4]
  Mouse liver microsomes (t1/12 min): >145 min
[5]
  SIF % remaining 2 h: 91.9%
[6]; kinetic from dmso stock
  solubility kinetic: 197 µM (≈ 105 µg/mL)
[7]
  Mouse plasma % remaining 2 h: 92.2%

## Cc1cccc(O[C@@H]2OC(CO)[C@H](O)[C@H](O)[C@@H]2NC(=O)C(F)(F)F)c1-c1cccc(NS(C)(=O)=O)c1 (stereo partly drawn) [Compound 3088, N-((2S,3S,4R,5R)-4,5-dihydroxy-6-(hydroxymethyl)-2-((6-methyl-3′-(methylsulfonamido)-[1,1′-biphenyl]-2-yl)oxy)tetrahydro-2H-pyran-3-yl)-2,2,2-trifluoroacetimidic acid]
[2]; [12]
  IC50: 0.11 µM
[3]
  SGF % remaining 6 h: 90.95%
[4]
  Mouse liver microsomes (t1/12 min): >145 min
[5]
  SIF % remaining 2 h: 89.15%
[6]; kinetic from dmso stock
  solubility kinetic: 164 µM (≈ 87.7 µg/mL)
[7]
  Mouse plasma % remaining 2 h: 88.9%

## OC[C@H]1O[C@@H](Oc2cc3c(O)cc(O)cc3[o+]c2-c2ccc(O)c(O)c2)[C@H](O)[C@@H](O)[C@H]1O [CG, reference compound]
[1]; Kd
  Kd: 212 µM
[2]; [10]
  inhibition at 100 µM: 28.8%

## CC(=O)N[C@H]1[C@H](Oc2ccccc2[N+](=O)[O-])O[C@H](CO)[C@H](O)[C@@H]1O [Compound 4β-NAc]
[1]; [9]
  Kd: 2.3 µM
[2]; [13]
  PI10 (percent inhibition): 87.2 ± 1.7%
[2]; [14]
  inhibition at 1 µM: 28.6 ± 4.5%
[2]; [15]
  inhibition at 10 µM: 87%
[2]; [11]
  inhibition at 100 µM: 99.4 ± 1.3%

## CC(=O)N[C@@H]1[C@@H](O[C@@H]2O[C@H](CO)[C@H](O)[C@H](O)[C@H]2O)[C@H](O)[C@@H](CO)O[C@@H]1O [Gal-β1-GalNAc, reference compound]
[1]; [9]
  Kd: 248 ± 20.3 µM

## O=C(O)c1cccc(-c2ccccc2O[C@@H]2O[C@H](CO)[C@H](O)[C@H](O)[C@H]2O)c1 [Compound 29β, 2′-(α/β-D-galactopyranosyloxy)-[1,1′-Biphenyl]-3-carboxylic acid]
[1]; BLI Kd ratio
  enhancement in binding affinity relative to Gal: ~330 fold
[2]; [13]
  PI10 (percent inhibition): 75.1 ± 1.0%
[2]; [14]
  inhibition at 1 µM: 22.9 ± 5.1%
[2]; [15]
  inhibition at 10 µM: 75%
[2]; [11]
  inhibition at 100 µM: 99%

## COc1ccccc1O[C@@H]1O[C@H](CO)[C@H](O)[C@H](O)[C@H]1O [Compound 149e]
[1]; Kd
  Kd: 6.5 µM
[2]; [16]
  inhibition at 1 µM: 9.99%
[2]; [17]
  inhibition at 10 µM: 55.7%
[2]; [10]
  inhibition at 100 µM: 97.2%

## OC[C@H]1O[C@@H](Oc2cccc3cccnc23)[C@H](O)[C@@H](O)[C@H]1O [Compound 8HQG, reference compound]
[1]; Kd
  Kd: 7.1 µM
[2]; [16]
  inhibition at 1 µM: 19.2%
[2]; [17]
  inhibition at 10 µM: 48.1%
[2]; [10]
  inhibition at 100 µM: 95.1%

## O=C(O)c1cccc(-c2ccccc2O[C@@H]2O[C@H](CO)[C@H](O)[C@H](O)[C@H]2O)c1 [Compound 200b]
[1]; Kd
  Kd: 2.1 µM
[2]; [16]
  inhibition at 1 µM: 12.3%
[2]; [17]
  inhibition at 10 µM: 75.1%
[2]; [10]
  inhibition at 100 µM: 99%

## CC(=O)N[C@H]1[C@H](Oc2cccc(C)c2-c2cccc(NS(=O)(=O)C3CC3)c2)O[C@H](CO)[C@H](O)[C@@H]1O [Compound 3086, N-((2S,3R,4R,5R,6R)-2-((3′-(cyclopropanesulfonamido)-6-methyl-[1,1′-biphenyl]-2-yl)oxy)-4,5-dihydroxy-6-(hydroxymethyl)tetrahydro-2H-pyran-3-yl)acetamide]
[8]
  bioavailability: < 1%
  renal clearance to the urine: low renal clearance to the urine
[8]; [18]
  clearance (Cl): 43.8 mL/min/kg
  t1/2: 1.46 h
[2]
  inhibitory potency against FmlH, in words: retain the same activity as the methyl sulfonamides
[2]; [12]
  IC50: 0.12 µM
[3]
  SGF % remaining 6 h: 100.00%
[4]
  Mouse liver microsomes (t1/12 min): >145 min
[5]
  SIF % remaining 2 h: 100.00%
[6]
  solubility kinetic: 196 µM (≈ 99.3 µg/mL)
[7]
  Mouse plasma % remaining 2 h: 84.1%

## CC(=O)N[C@H]1[C@H](Oc2ccc3ccccc3c2-c2cccc(NS(C)(=O)=O)c2)O[C@H](CO)[C@H](O)[C@@H]1O [AM2144]
[2]; IC50, inhibition of FmlHLD binding to ds-BSM
  IC50: 0.18 µM

## CC(=O)N[C@H]1[C@H](Oc2cccc(F)c2-c2cccc(NS(C)(=O)=O)c2)O[C@H](CO)[C@H](O)[C@@H]1O [Compound 3080, N-((2S,3R,4R,5R,6R)-2-((6-fluoro-3′-(methylsulfonamido)-[1,1′-biphenyl]-2-yl)oxy)-4,5-dihydroxy-6-(hydroxymethyl)tetrahydro-2H-pyran-3-yl)acetamide]
[2]; [12]
  IC50: 0.15 µM
[3]
  SGF % remaining 6 h: 91.95%
[4]
  Mouse liver microsomes (t1/12 min): >145 min
[5]
  SIF % remaining 2 h: 93.79%
[6]
  solubility kinetic: 197 µM (≈ 95.4 µg/mL)
[7]
  Mouse plasma % remaining 2 h: 89.1%
